Experimental data published in patent US6358998B1, “Body fat-reducing agent comprising dioxabicyclo[3.3.0] octane derivative as active ingredient” (Rinoru Oil Mills Co., LTD, priority 1999, dated 2002).

How the values were obtained:
fat tissues of rats = assay: Example 1: four-week feeding of experimental diet to rats, organ and fat tissue weights; assay type: in vivo, rat; conditions: Sprague-Dawley male rats, four weeks of feeding, compared with the control group
Source text: Sprague-Dawley male rats of four weeks of age were acclimatized, and then divided into three groups (each group consisting of 8 rats), a 1.0% linoleic acid group (a control group), 0.2% sesamin group, and 0.2% sesamin+1.0% CLA group. The experimental diet shown in Table 1 and water were then freely fed to these three groups of rats. […] Four weeks after the initiation of feeding, the 8 rats constituting each group were scarified, and the organs were taken out.

perfused liver = assay: Example 2: liver perfusion experiment, triglyceride secretion; assay type: in vivo, rat; conditions: Sprague-Dawley male rats, three weeks of feeding, compared with the control group
Source text: Sprague-Dawley male rats of four weeks of age were acclimatized for 5 to 11 days, and then divided into three groups (each group consisting of 5 rats), a 1.0% linoleic acid group (a control group), 0.2% sesamin group, and 0.2% sesamin+1.0% CLA group. In the experiment, CE-2 (lipid content 4.5%) manufactured by CLEA JAPAN INC. with 1.5% of a soybean oil being added thereto was used as a basic diet, and the experimental diet was freely fed to the rats. […] Three weeks after the initiation of feeding, a liver perfusion experiment was carried out.

c1cc2c(cc1[C@H]1OC[C@H]3[C@@H]1CO[C@@H]3c1ccc3c(c1)OCO3)OCO2 [Sesamin, sesamin]
reduced: weight of fat tissues around epididymis (fat tissues of rats) | weight of fat tissues around kidney (fat tissues of rats) | amount of triglyceride secreted from the perfused liver (perfused liver)
